Test system: H9-derived spinal cord NSCs
Assay: Long-term maintenance and expansion of spinal cord NSCs in neural maintenance media
Type: cell-based, human
Conditions: for effect of omission from maintenance media on cultures: omission of the component, data not shown

SMILES | effect of omission from maintenance media on cultures | effect on dorso-ventral polarity of induced cells (NKX6.1, PAX6) (18 days after neural induction)
Cc1c[nH]c(-c2cnc(NCCNc3ccc(C#N)cn3)nc2-c2ccc(Cl)cc2Cl)n1 [CHIR] | failure to sustain cultures over time | 
CNC1CCC(N(Cc2cccc(-c3ccncc3)c2)C(=O)c2sc3c(F)ccc(F)c3c2Cl)CC1 (stereo not drawn) [Hh-Ag1.5] | failure to sustain cultures over time | disrupted dorso-ventral polarity

— patent US11773369B2, “Generation of human spinal cord neural stem cells” (THE REGENTS OF THE UNIVERSITY OF CALIFORNIA, priority 2018, dated 2023)
